Experimental data from paper PMC9321742 (Viruses, 2022).
Several values for one entry are separate records, joined by “and”; a condition that tells them apart may be missing. Equal values may be shown once.

Test system: SARS-CoV-2 B.1 (D614G) wild-type
Type: cell-based

Which “Increase in antiviral activity by the P-gp inhibitor” value does the source give for `O=c1nc(NO)ccn1[C@@H]1O[C@H](CO)[C@@H](O)[C@H]1O` [EIDD-1931] here?
The value was “negligible”.

What about the IC50 (read-out: IC50 WT Mean ± SD) of the same compound?
The IC50 was 1.1 µM and 1.5 µM.
